“Also recorded” adds a separate entry of the source. Ends that are not written are not given here.
Key:
[1] = tested on: M11–Beclin1(101–267) complex; test: Displacement test on M11–Beclin1(101–267) complex; format: binding, murine γ-herpesvirus 68; conditions: M11 mixed with Beclin1(101–267) at 1:1 molar ratio, 1 h; BH3 peptide added, additional 1 h; gel
Source text: (§1) A newly identified function of BCL-2 is the down regulation of autophagy through their inhibitory binding to Beclin1, which appears critical for cellular homeostasis. […] The weak interaction explains the recent observation that endogenous BH3-only proteins induce autophagy by displacing Beclin1 from BCL-2/BCL-XL [31]. Like the cellular kin, two viral BCL-2 proteins from γHV68 and KSHV are known to inhibit autophagy in addition to suppressing apoptotic death of cells. In this study, we provided the structural basis for the inhibitory interaction of M11 with Beclin1, which is reminiscent of the canonical interaction between a BH3 peptide and a BH3-binding groove. […] As a confirmatory experiment, we carried out a displacement test, where a complex between two proteins was challenged by another protein. […] Conceivably, M11 could negate the proautophagic role of the BH3-only proteins under apoptosis-inducing conditions in contrast with BCL-2/BCL-XL.
The complexes between each of the BH3 peptides and BCL-2 or BCL-XL appeared. The numbers above the gels indicate the final concentrations of the indicated proteins and peptides. The schematic drawings are shown to help to understand the experimental scheme and results. (1.8 MB TIF) Click here for additional data file.

[2] = tested on: BCL-2 ∆C22; design: method as in earlier work; conditions: Table S1; relative values, not absolute KD; peptides of Chen et al. are the same as or 1 to 2 residues shorter than those of this paper; read-out: binding affinity for BCL-2 ∆C22 (relative value, competitive binding assay); cited from earlier work
[3] = tested on: BCL-XL ∆C24; conditions: Table S1; relative values, not absolute KD; peptides of Chen et al. are the same as or 1 to 2 residues shorter than those of this paper; read-out: binding affinity for BCL-XL ∆C24 (relative value, competitive binding assay); cited from earlier work
[4] = tested on: BCL-w ∆C29; conditions: Table S1; relative values, not absolute KD; peptides of Chen et al. are the same as or 1 to 2 residues shorter than those of this paper; read-out: binding affinity for BCL-w ∆C29 (relative value, competitive binding assay); cited from earlier work
[5] = tested on: A1 ∆C20; design: method as in earlier work; conditions: Table S1; relative values, not absolute KD; peptides of Chen et al. are the same as or 1 to 2 residues shorter than those of this paper; read-out: binding affinity for A1 ∆C20 (relative value, competitive binding assay); cited from earlier work
[6] = target: T1, M11, viral BCL-2 of murine γ-herpesvirus 68 (residues 1–137) (Murid herpesvirus 4, UniProt P89884); format: binding; conditions: 25 °C, 20 mM Tris-HCl (pH 7.4), 100 mM NaCl
T1 construct: Each of the DNA fragments coding for M11 (residues 1–137); His6 tag; This is inferred: pPROEX HTa encodes an N-terminal His tag with a TEV site, and purification was on Ni-NTA; (N); made in house; host or cells: E. coli BL21(DE3)
T1 sequence (P89884 whole entry, looked up): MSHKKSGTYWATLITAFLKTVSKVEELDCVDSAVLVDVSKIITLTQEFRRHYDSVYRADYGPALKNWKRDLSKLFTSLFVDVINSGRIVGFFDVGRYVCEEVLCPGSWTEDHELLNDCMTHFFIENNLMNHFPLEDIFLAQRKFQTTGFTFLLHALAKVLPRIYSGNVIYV
Source text: “HT”, “CCD” and “ECD” denote hydrophobic tail, coiled-coil domain and evolutionarily conserved domain, respectively. […] The surface coloring scheme is as follows: olive for Val, Leu, Ile, Phe, Trp, Met, and Ala; yellow for Cys, Gly, Tyr, and Pro; gray for other amino acids. […] Only the BH3-binding groove region of M11 is shown for clarity. […] The arrows indicate the movements of the Cα atoms of Asp59 and Tyr60 in M11. (C) ITC analysis.
Figure 5 Analyses of the Interactions between M11 or BCL-2 Proteins and BAX/BAK (A) Cell-based binding assay. 293T cells were transfected with HA-tagged BAK or Flag-tagged BAX together with the indicated GST-tagged prosurvival BCL-2 proteins. Whole cell lysates were used for immunoprecipitation with anti-GST followed by immunoblotting with anti-HA or anti-Flag. […] (B) ITC analyses of the interactions of M11 with the BH3 peptides of BAX or BAK. The ITC analysis was carried out by titrating 0.1 mM of the indicated peptides into 5 μM of M11. The ITC run for the titration of the 26-mer BAK peptide is shown. […] NIH3T3 cells were transfected with HA-tagged M11 and whole cell lysates were used for immunoprecipitation with control rabbit serum or anti-BAK followed by immunoblotting with anti-HA.
A plasmid containing the DNA segment coding for human BCL-2 (residues 1–50 and 92–207) was also constructed. The resulting protein lacks the internal long loop (residues 51–91) and contains a replacement of residues 35–50 with residues 33–48 of BCL-XL, which was necessary for the solubility of the protein as reported earlier. Each construct was introduced into the E. coli BL21(DE3) strain. The proteins were expressed at 21 °C overnight and purified using a Ni-NTA column and a Hitrap Q anion exchange column.
All measurements were carried out at 25 °C on a MicroCalorimetry System (MicroCal). Protein samples were dialyzed against the solution containing 20 mM Tris-HCl (pH 7.4) and 100 mM NaCl. The samples were degassed for 20 min and centrifuged to remove any residuals prior to the measurements. Dilution enthalpies were measured in separate experiments (titrant into buffer) and subtracted from the enthalpies of the binding between the protein and the titrant. Data were analyzed using the Origin software (OriginLab Corp.).

[7] = tested on: BCL-2–Beclin1(101–267) complex; test: Displacement test on BCL-2–Beclin1(101–267) complex; format: binding, human; conditions: BCL-2 mixed with Beclin1(101–267) at 1:4 molar ratio, 1 h; BH3 peptide added; gel
Source text: as §1
(§2) Each of the DNA fragments coding for M11 (residues 1–137), mouse BCL-XL (residues 1–44 and 85–196) or mouse Beclin1 (residues 101–267) was cloned into pPROEX HTa. A plasmid containing the DNA segment coding for human BCL-2 (residues 1–50 and 92–207) was also constructed. […]

[8] = tested on: BCL-XL–Beclin1(101–267) complex; test: Displacement test on BCL-XL–Beclin1(101–267) complex; format: binding, mouse; conditions: BCL-XL mixed with Beclin1(101–267) at 1:4 molar ratio, 1 h; BH3 peptide added; gel
Source text: as §1, §2

[9] = tested on: MCL ∆N151 ∆C23; design: method as in earlier work; conditions: Table S1; relative values, not absolute KD; peptides of Chen et al. are the same as or 1 to 2 residues shorter than those of this paper; read-out: binding affinity for MCL ∆N151 ∆C23 (relative value, competitive binding assay); cited from earlier work
[10] = target: Beclin1 peptide (UniProt Q14457); conditions: cited from earlier work
[11] = target: T2, M11 (residues 1–137), coexpressed with Beclin1(101–150) (murine γ-herpesvirus 68, UniProt P89884 1-137); test: crystal structure; conditions: both partners purified
T2 sequence: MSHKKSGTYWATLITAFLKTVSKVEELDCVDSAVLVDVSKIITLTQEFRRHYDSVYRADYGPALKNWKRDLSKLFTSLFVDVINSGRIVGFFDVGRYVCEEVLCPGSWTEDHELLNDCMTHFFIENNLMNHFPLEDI

[12] = target: T3, M11 (residues 1–137), purified alone (murine γ-herpesvirus 68, UniProt P89884 1-137); test: ITC
T3 chain: T2 sequence

[13] = target: T4, mouse BAD (residues 43–204) (mouse, UniProt Q61337 43-204); test: crystal structure; BCL-XL (1–44, 85–196) coexpressed and co-purified with BAD(43–204); hanging drop, 4 °C, 10% PEG 1000, 10% PEG 8000; 2.3 Å; conditions: both partners purified
T4 sequence (looked up): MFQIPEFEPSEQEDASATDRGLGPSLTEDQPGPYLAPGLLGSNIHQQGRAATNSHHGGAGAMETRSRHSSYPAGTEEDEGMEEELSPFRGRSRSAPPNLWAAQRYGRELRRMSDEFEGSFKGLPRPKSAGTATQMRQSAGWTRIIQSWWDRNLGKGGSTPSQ

Question: For `CC[C@H](C)[C@H](NC(=O)[C@H](CCCCN)NC(=O)[C@H](CCCNC(=N)N)NC(=O)[C@H](CC(C)C)NC(=O)[C@H](CCC(N)=O)NC(=O)[C@H](C)NC(=O)[C@H](C)NC(=O)[C@H](Cc1ccccc1)NC(=O)[C@H](CCC(=O)O)NC(=O)[C@@H]1CCCN1C(=O)[C@@H]1CCCN1C(=O)[C@H](CC(C)C)NC(=O)[C@H](CCC(=O)O)NC(=O)[C@H](C)NC(=O)[C@@H](N)CCCNC(=N)N)C(=O)NCC(=O)N[C@@H](CC(=O)O)C(=O)N[C@@H](CCCCN)C(=O)N[C@H](C(=O)N[C@@H](Cc1ccc(O)cc1)C(=O)N[C@@H](CS)C(=O)N[C@H](C(=O)N[C@@H](Cc1c[nH]c2ccccc12)C(=O)N[C@@H](CO)C(=O)N[C@@H](C)C(=O)N1CCC[C@H]1C(=O)O)[C@@H](C)O)C(C)C` [Noxa], which “displacement of Beclin1(101–267) bound to M11 by BH3 peptide” value [1] is on record?
Answer: remained intact; also recorded: failed to displace

Question: What about the IC50 [2] of the same molecule?
Answer: > 100 µM

Question: What about the IC50 [3] of the same molecule?
Answer: > 100000 nM

Question: And the IC50 [4]?
Answer: > 100000 nM

Question: What about the IC50 [5] of the same molecule?
Answer: 180 nM

Question: With “BAD: synthetic 27-mer BH3 peptide, residues 137–163 of BAD (TATQMRQSSSWTRVFQSWWDRNLGRGS; BH3 peptide; UniProt Q92934 137-163, looked up, fragment)” as the molecule, how does the “interaction with M11 in ITC, in words (KD could not be deduced)” value [6] read?
Answer: did not interact or poorly interacted

Question: What about the “displacement of Beclin1(101–267) bound to BCL-2 by BH3 peptide” value [7] of the same molecule?
Answer: easily disrupted

Question: And the “displacement of Beclin1(101–267) bound to BCL-XL by BH3 peptide” value [8]?
Answer: easily disrupted

Question: And the IC50 [2]?
Answer: 0.016 µM

Question: What about the IC50 [3] of the same molecule?
Answer: 5.3 nM

Question: And the IC50 [4]?
Answer: 30 nM

Question: What about the IC50 [9] of the same molecule?
Answer: > 100 µM

Question: What about the IC50 [5] of the same molecule?
Answer: 15000 nM

Question: For BCL-XL (from UniProt Q07817), which Kd [10] is on record?
Answer: 1100 nM

Question: For EEIIHNIARHLAQIGDEMDHNIQPT [BID], which “displacement of Beclin1(101–267) bound to M11 by BH3 peptide” value [1] is on record?
Answer: remained intact; also recorded: failed to displace

Question: What about the IC50 [2] of the same molecule?
Answer: 6.8 µM

Question: What about the IC50 [3] of the same molecule?
Answer: 82 nM

Question: What about the IC50 [4] of the same molecule?
Answer: 40 nM

Question: And the IC50 [5]?
Answer: 9.3 nM

B1: Beclin1(101–150) (domain or fragment, mouse, UniProt O88597 101-150, looked up)
chain: ASDGGTMENLSRRLKVTGDLFDIMSGQTDVDHPLCEECTDTLLDQLDTQL
notes: also called mouse Beclin1 fragment consisting of residues 101–150; 50-residue Beclin1 fragment
Question: Does B1 bind [11]?
Answer: binds

Question: Which Kd [12] does the source give for HRAEVQIARKLQCIADQFHRLHTQ [BMF BH3 peptide, 24-mer (residues 214–237 of BMF)] here?
Answer: 300 nM

B2: mouse BCL-XL (residues 1–44 and 85–196) (domain or fragment, UniProt Q64373-1 1-196, looked up)
chain: MSQSNRELVVDFLSYKLSQKGYSWSQFSDVEENRTEAPEETEAEAVKQALREAGDEFELRYRRAFSDLTSQLHITPGTAYQSFEQVVNELFRDGVNWGRIVAFFSFGGALCVESVDKEMQVLVSRIASWMATYLNDHLEPWIQENGGWDTFVDLYG
notes: also called BCL-XL lacking the internal long loop and the C-terminal tail region
Question: Does B2 bind [13]?
Answer: binds

From article PMC2222952, “Structural and Biochemical Bases for the Inhibition of Autophagy and Apoptosis by Viral BCL-2 of Murine γ-Herpesvirus 68” (PLoS Pathogens, 2008)
